# Key:
# [1] = tested on: Panel, CD-IGS and parental rat strains; test: Plasma triglyceride lowering by clofibrate; format: in vivo; details: between WKY×LEW, WKY×BN and WKY×F344; 250 mg/Kg
# Protocol: Triglyceride levels in plasma were measured following euthanasia on day 7. Plotted are the percent differences in triglyceride values in a particular drug treatment group.
# [2] = tested on: rat liver peroxisomal fatty-acyl CoA oxidase; test: Fluorometric assay of liver peroxisomal fatty-acyl CoA oxidase (FAO) activity after clofibrate; format: in vivo; details: CD-IGS rats
# Protocol: Peroxisomal fractions from livers of each strain were measured for FAO activity. In order to account for intra-strain variability, graphed are the average values derived by subtracting the vehicle FAO (average) from each individual drug induced FAO. The y-axis represents the FAO activity (nmol H2O2 per minute-mg peroximal protein).
# The assay was done by using a fluorometric assay for rat liver peroxisomal fafty-acyl CoA oxidase activity (FAO). The first step of this assay uses a palmitoyl-CoA dependent NAD+ reducing system to oxidize FAO and produce H2O2. The H2O2 is then coupled in a peroxidase catalyzed reaction to the oxidation of scopoletin, a naturally fluorescent compound. A fall in fluorescence of the sample indicates an increase in FAO activity which subsequently reflects the increase in the fatty acid oxidase in the liver.
# Six clofibrate samples and four vehicle samples were individually tested for FAO activity in duplicate tests. Using an H2O2 standard curve enables the change in fluorescence to be converted to FAO activity units (Walusimbi-Kisitu, M. and E. H. Harrison, J. Lipid Res. 24(8):1077-1084, 1983).
# [3] = tested on: Panel, CD-IGS and parental rat strains; details: in vivo, 250 mg/kg
# Protocol: Alanine transferase (ALT) levels in plasma an index of liver damage were measured in outbred and inbred strains (top panel) and the Panel F1 hybrids (bottom panel) following euthanasia on day 7. Plotted are the average ALT values for drug (left) and vehicle (right) within a particular drug treatment group (designated by strain). The number of animals tested in each group is denoted below the strain designation in parenthesis as # drug treated animas/#vehicle treated animals.
# We delivered the clofibrate orally by gavage (250 mg/Kg in hydroxyproply methyl cellulose) to the rats on 6 consecutive days.
# [4] = tested on: Panel, CD-IGS and parental rat strains; test: Liver histology after clofibrate; format: in vivo
# Description: Hypolipidemic drugs, such as clofibrate, commonly induce peroxisomal proliferation and an increase in the activity of peroxisomal beta-oxidation pathway. We looked for these changes in our rats by histological analysis of a section of the left lateral lobe from livers of either clofibrate or vehicle treated rats. While we could detect cellular differences (e.g. hepatocelluar hypertrophy, hepatocellular vacuolization, anisokaryosis and portal lymphocytic infiltrates) among the clofibrate treated livers versus the vehicle controls within any strain.
# [5] = tested on: Panel and outbred (CD-IGS) rat strains; test: Proteinuria, glucose excretion and renal histology after cisplatin; format: in vivo; details: 5 mg/Kg cisplatin
# [6] = tested on: Panel and outbred (CD-IGS) rat strains; test: Clinical chemistry endpoints of cisplatin-treated vs. vehicle rats; format: in vivo; set-up: T-test value AST / T-test value ALT: unit not given here; details: cisplatin 5 mg/Kg vs. vehicle
smiles,measurement,setting,value
CCOC(=O)C(C)(C)Oc1ccc(Cl)cc1 [clofibrate],variation in magnitude of the fall in plasma triglyceride levels,[1],3 fold
same,hepatotoxic effects relative to other strains (FAO activity),[2],resistant
same,AST levels (predictor of liver toxicity),[3],not significantly affected
same,liver hypertrophy,[4]; all the strains,hypertrophy of the liver
same,histopathology differences between the strains within the Panel,"[4]; left lateral lobe sections, clofibrate vs. vehicle",no quantitative differences
N.N.[Cl][Pt][Cl] [cisplatin],"degree of proteinuria, glucose excretion and histologic damage to renal proximal tubules between the strains",[5],marked differences
same,T-test value ALB,[6]; BNxF344 rats,0.111
same,T-test value ALP,[6]; BNxF344 rats,0.157
same,T-test value ALT,[6]; BNxF344 rats,0.600
same,T-test value ANION GAP,[6]; BNxF344 rats,0.069
same,T-test value AST,[6]; BNxF344 rats,0.780
same,T-test value BICARB,[6]; BNxF344 rats,0.003
same,T-test value BUN,[6]; BNxF344 rats,0.002
same,T-test value CA,[6]; BNxF344 rats,0.642
same,T-test value CHOL,[6]; BNxF344 rats,0.001
same,T-test value CREAT,[6]; BNxF344 rats,0.001
same,T-test value GGT,[6]; BNxF344 rats,0.351
same,T-test value GLOB,[6]; BNxF344 rats,0.116
same,T-test value GLU,[6]; BNxF344 rats,0.477
same,T-test value K,[6]; BNxF344 rats,0.133
same,T-test value NA,[6]; BNxF344 rats,0.851
same,T-test value PHOS,[6]; BNxF344 rats,0.230
same,T-test value TBILI,[6]; BNxF344 rats,0.005
same,T-test value TP,[6]; BNxF344 rats,0.877
same,T-test value TRIG,[6]; BNxF344 rats,0.153
same,T-test value ALB,[6]; CD-IGS rats,0.096
same,T-test value ALP,[6]; CD-IGS rats,0.567
same,T-test value ALT,[6]; CD-IGS rats,0.732
same,T-test value ANION GAP,[6]; CD-IGS rats,0.440
same,T-test value AST,[6]; CD-IGS rats,0.433
same,T-test value BICARB,[6]; CD-IGS rats,0.436
same,T-test value BUN,[6]; CD-IGS rats,0.003
same,T-test value CA,[6]; CD-IGS rats,0.268
same,T-test value CHOL,[6]; CD-IGS rats,0.393
same,T-test value CREAT,[6]; CD-IGS rats,0.002
same,T-test value GGT,[6]; CD-IGS rats,0.351
same,T-test value GLOB,[6]; CD-IGS rats,0.750
same,T-test value GLU,[6]; CD-IGS rats,0.965
same,T-test value K,[6]; CD-IGS rats,0.465
same,T-test value NA,[6]; CD-IGS rats,0.095
same,T-test value PHOS,[6]; CD-IGS rats,0.943
same,T-test value TBILI,[6]; CD-IGS rats,0.742
same,T-test value TP,[6]; CD-IGS rats,0.080
same,T-test value TRIG,[6]; CD-IGS rats,0.133
same,T-test value ALB,[6]; LEWxBN rats,0.000
same,T-test value ALP,[6]; LEWxBN rats,0.001
same,T-test value ALT,[6]; LEWxBN rats,0.593
same,T-test value ANION GAP,[6]; LEWxBN rats,0.058
same,T-test value AST,[6]; LEWxBN rats,0.341
same,T-test value BICARB,[6]; LEWxBN rats,0.016
same,T-test value BUN,[6]; LEWxBN rats,0.000
same,T-test value CA,[6]; LEWxBN rats,0.333
same,T-test value CHOL,[6]; LEWxBN rats,0.000
same,T-test value CREAT,[6]; LEWxBN rats,0.000
same,T-test value GGT,[6]; LEWxBN rats,0.339
same,T-test value GLOB,[6]; LEWxBN rats,0.007
same,T-test value GLU,[6]; LEWxBN rats,0.024
same,T-test value K,[6]; LEWxBN rats,0.036
same,T-test value NA,[6]; LEWxBN rats,0.230
same,T-test value PHOS,[6]; LEWxBN rats,0.063
same,T-test value TBILI,[6]; LEWxBN rats,0.463
same,T-test value TP,[6]; LEWxBN rats,0.148
same,T-test value TRIG,[6]; LEWxBN rats,0.085
same,T-test value ALB,[6]; LEWxF344 rats,0.534
same,T-test value ALP,[6]; LEWxF344 rats,0.214
same,T-test value ALT,[6]; LEWxF344 rats,0.979
same,T-test value ANION GAP,[6]; LEWxF344 rats,0.711
same,T-test value AST,[6]; LEWxF344 rats,0.739
same,T-test value BICARB,[6]; LEWxF344 rats,0.596
same,T-test value BUN,[6]; LEWxF344 rats,0.000
same,T-test value CA,[6]; LEWxF344 rats,0.448
same,T-test value CHOL,[6]; LEWxF344 rats,0.000
same,T-test value CREAT,[6]; LEWxF344 rats,0.000
same,T-test value GLOB,[6]; LEWxF344 rats,0.361
same,T-test value GLU,[6]; LEWxF344 rats,0.695
same,T-test value K,[6]; LEWxF344 rats,0.152
same,T-test value NA,[6]; LEWxF344 rats,0.738
same,T-test value PHOS,[6]; LEWxF344 rats,0.831
same,T-test value TBILI,[6]; LEWxF344 rats,0.663
same,T-test value TP,[6]; LEWxF344 rats,0.492
same,T-test value TRIG,[6]; LEWxF344 rats,0.540
same,T-test value ALB,[6]; Panel (all six strains),0.000
same,T-test value ALP,[6]; Panel (all six strains),0.000
same,T-test value ALT,[6]; Panel (all six strains),0.693
same,T-test value ANION GAP,[6]; Panel (all six strains),0.014
same,T-test value AST,[6]; Panel (all six strains),0.227
same,T-test value BICARB,[6]; Panel (all six strains),0.000
same,T-test value BUN,[6]; Panel (all six strains),0.000
same,T-test value CA,[6]; Panel (all six strains),0.974
same,T-test value CHOL,[6]; Panel (all six strains),0.000
same,T-test value CREAT,[6]; Panel (all six strains),0.000
same,T-test value GGT,[6]; Panel (all six strains),0.024
same,T-test value GLOB,[6]; Panel (all six strains),0.016
same,T-test value GLU,[6]; Panel (all six strains),0.561
same,T-test value K,[6]; Panel (all six strains),0.000
same,T-test value NA,[6]; Panel (all six strains),0.414
same,T-test value PHOS,[6]; Panel (all six strains),0.004
same,T-test value TBILI,[6]; Panel (all six strains),0.027
same,T-test value TP,[6]; Panel (all six strains),0.487
same,T-test value TRIG,[6]; Panel (all six strains),0.058
same,T-test value ALB,[6]; WKYxBN rats,0.337
same,T-test value ALP,[6]; WKYxBN rats,0.956
same,T-test value ALT,[6]; WKYxBN rats,0.222
same,T-test value ANION GAP,[6]; WKYxBN rats,0.485
same,T-test value AST,[6]; WKYxBN rats,0.189
same,T-test value BICARB,[6]; WKYxBN rats,0.649
same,T-test value BUN,[6]; WKYxBN rats,0.001
same,T-test value CA,[6]; WKYxBN rats,0.064
same,T-test value CHOL,[6]; WKYxBN rats,0.000
same,T-test value CREAT,[6]; WKYxBN rats,0.002
same,T-test value GGT,[6]; WKYxBN rats,0.170
same,T-test value GLOB,[6]; WKYxBN rats,0.007
same,T-test value GLU,[6]; WKYxBN rats,0.968
same,T-test value K,[6]; WKYxBN rats,0.014
same,T-test value NA,[6]; WKYxBN rats,0.165
same,T-test value PHOS,[6]; WKYxBN rats,0.081
same,T-test value TBILI,[6]; WKYxBN rats,0.379
same,T-test value TP,[6]; WKYxBN rats,0.458
same,T-test value TRIG,[6]; WKYxBN rats,0.210
same,T-test value ALB,[6]; WKYxF344 rats,0.001
same,T-test value ALP,[6]; WKYxF344 rats,0.000
same,T-test value ALT,[6]; WKYxF344 rats,0.604
same,T-test value ANION GAP,[6]; WKYxF344 rats,0.868
same,T-test value AST,[6]; WKYxF344 rats,0.934
same,T-test value BICARB,[6]; WKYxF344 rats,0.004
same,T-test value BUN,[6]; WKYxF344 rats,0.000
same,T-test value CA,[6]; WKYxF344 rats,0.037
same,T-test value CHOL,[6]; WKYxF344 rats,0.004
same,T-test value CREAT,[6]; WKYxF344 rats,0.000
same,T-test value GLOB,[6]; WKYxF344 rats,0.007
same,T-test value GLU,[6]; WKYxF344 rats,0.155
same,T-test value K,[6]; WKYxF344 rats,0.583
same,T-test value NA,[6]; WKYxF344 rats,0.872
same,T-test value PHOS,[6]; WKYxF344 rats,0.282
same,T-test value TBILI,[6]; WKYxF344 rats,0.008
same,T-test value TP,[6]; WKYxF344 rats,0.054
same,T-test value TRIG,[6]; WKYxF344 rats,0.041
same,T-test value ALB,[6]; WKYxLEW rats,0.453
same,T-test value ALP,[6]; WKYxLEW rats,0.342
same,T-test value ALT,[6]; WKYxLEW rats,0.874
same,T-test value ANION GAP,[6]; WKYxLEW rats,0.033
same,T-test value AST,[6]; WKYxLEW rats,0.689
same,T-test value BICARB,[6]; WKYxLEW rats,0.266
same,T-test value BUN,[6]; WKYxLEW rats,0.009
same,T-test value CA,[6]; WKYxLEW rats,0.870
same,T-test value CHOL,[6]; WKYxLEW rats,0.019
same,T-test value CREAT,[6]; WKYxLEW rats,0.025
same,T-test value GGT,[6]; WKYxLEW rats,0.363
same,T-test value GLOB,[6]; WKYxLEW rats,0.057
same,T-test value GLU,[6]; WKYxLEW rats,0.289
same,T-test value K,[6]; WKYxLEW rats,0.137
same,T-test value NA,[6]; WKYxLEW rats,1.000
same,T-test value PHOS,[6]; WKYxLEW rats,0.055
same,T-test value TBILI,[6]; WKYxLEW rats,0.364
same,T-test value TP,[6]; WKYxLEW rats,0.008
same,T-test value TRIG,[6]; WKYxLEW rats,0.677
